Laboratory results published in PubChem BioAssay (NCI).
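Method: 48-hour compound exposure of cells in 96-well plates, five concentrations, linear interpolation of endpoints. TGI denotes the concentration required for complete inhibition of growth.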

What was measured:
Experiment in all cases: growth of human tumour cells (NCI), 48 h
[1] = test system: 786-0 renal
[2] = test system: A498 renal
[3] = test system: A549 NSCLC
[4] = test system: ACHN renal
[5] = test system: BT-549 breast
[6] = test system: CAKI-1 renal
[7] = test system: COLO 205 colon
[8] = test system: DU-145 prostate
[9] = test system: EKVX NSCLC
[10] = test system: HCC-2998 colon
[11] = test system: HCT-116 colon
[12] = test system: HCT-15 colon
[13] = test system: HL-60(TB) leukemia
[14] = test system: HOP-62 NSCLC
[15] = test system: HOP-92 NSCLC
[16] = test system: HS 578T breast
[17] = test system: HT29 colon
[18] = test system: IGROV1 ovarian
[19] = test system: KM12 colon
[20] = test system: LOX IMVI melanoma
[21] = test system: M14 melanoma
[22] = test system: MALME-3M melanoma
[23] = test system: MCF7 breast
[24] = test system: MDA-MB-231 breast
[25] = test system: MDA-MB-435
[26] = test system: MDA-N
[27] = test system: MOLT-4 leukemia
[28] = test system: NCI-H226 lung
[29] = test system: NCI-H23 lung
[30] = test system: NCI-H522 lung
[31] = test system: NCI/ADR-RES ovarian
[32] = test system: OVCAR-3 ovarian
[33] = test system: OVCAR-4 ovarian
[34] = test system: OVCAR-5 ovarian
[35] = test system: OVCAR-8 ovarian
[36] = test system: PC-3 prostate
[37] = test system: RPMI-8226 leukemia
[38] = test system: RXF 393 renal
[39] = test system: SF-268 CNS
[40] = test system: SF-295 CNS
[41] = test system: SF-539 CNS
[42] = test system: SK-MEL-2 melanoma
[43] = test system: SK-MEL-28 melanoma
[44] = test system: SK-MEL-5 melanoma
[45] = test system: SK-OV-3 ovarian
[46] = test system: SN12C renal
[47] = test system: SNB-75 CNS
[48] = test system: SR leukemia
[49] = test system: SW-620 colon
[50] = test system: T-47D breast
[51] = test system: TK-10 renal
[52] = test system: U251 CNS
[53] = test system: UACC-257 melanoma
[54] = test system: UACC-62 melanoma
[55] = test system: UO-31 renal
[56] = test system: K-562 leukemia
[57] = test system: NCI-H460 lung
[58] = test system: SNB-19 CNS
[59] = test system: CCRF-CEM leukemia

Measured: TGI

COC(=O)C1=CO[C@@H](OC2OC(CO)C(O)C(O)C2O)[C@H]2[C@@H](C)[C@@H](O)[C@@H](O)[C@@H]12 (stereo not given in full)
> 100 µM: [1] | [2] | [3] | [4] | [5] | [6] | [7] | [8] | [9] | [10] | [11] | [12] | [13] | [14] | [15] | [16] | [17] | [18] | [19] | [20] | [21] | [22] | [23] | [24] | [25] | [26] | [27] | [28] | [29] | [30] | [31] | [32] | [33] | [34] | [35] | [36] | [37] | [38] | [39] | [40] | [41] | [42] | [43] | [44] | [45] | [46] | [47] | [48] | [49] | [50] | [51] | [52] | [53] | [54] | [55]

CC(Oc1ccccc1Cl)C(=O)NN1C(=O)CC(=O)NC1=S (stereo not given)
> 100 µM: [1] | [2] | [3] | [4] | [5] | [6] | [7] | [8] | [9] | [10] | [11] | [12] | [13] | [14] | [15] | [16] | [17] | [18] | [56] | [19] | [20] | [21] | [22] | [23] | [24] | [25] | [26] | [27] | [28] | [29] | [57] | [30] | [31] | [32] | [33] | [34] | [35] | [36] | [37] | [38] | [39] | [40] | [41] | [42] | [43] | [44] | [45] | [46] | [58] | [47] | [48] | [49] | [50] | [51] | [52] | [53] | [54] | [55]

C[C@]12CC[C@H]3[C@@H](CC=C4C[C@@H](O)CC[C@@]43C)[C@@H]1C/C(=C/c1ccccc1)[C@@H]2O
> 79.3 µM: [17]
> 56.5 µM: [58]
> 91.2 µM: [43]
> 77.8 µM: [21]
> 68.2 µM: [23]
56.5 µM: [54]
> 66.7 µM: [45]
> 68.5 µM: [47]
54.8 µM: [14]
98 µM: [16]
> 60.3 µM: [10]
> 57 µM: [38]
> 86.2 µM: [41]
> 58.9 µM: [6]
> 73.2 µM: [33]
> 51.5 µM: [3]
45.4 µM: [53]
> 62 µM: [55]
> 89.1 µM: [31]
89.2 µM: [39]
> 57.2 µM: [36]
79.4 µM: [22]
> 45.3 µM: [11]
> 100 µM: [59] | [12] | [13] | [56] | [27] | [29] | [57] | [30] | [37] | [44] | [48] | [49]
43.9 µM: [18]
52.1 µM: [35]
> 69.6 µM: [15]
98.9 µM: [7]
43.3 µM: [32]
> 51.9 µM: [1]
72.4 µM: [5]
> 64.2 µM: [8]
35.8 µM: [2]
> 70 µM: [9]
65.5 µM: [26]
> 78.8 µM: [19]
> 61.4 µM: [4]
> 53.3 µM: [51]
> 50.2 µM: [20]
> 76.9 µM: [24]
> 50.5 µM: [52]
> 65.9 µM: [40]
> 83.4 µM: [25]
> 59.1 µM: [50]
66.1 µM: [28]
57.9 µM: [42]
> 76.5 µM: [34]

NC(=O)c1ncn(C2OC(CO)C(O)C2O)c1NC=O (stereo not given)
> 100 µM: [1] | [2] | [3] | [4] | [5] | [6] | [59] | [7] | [8] | [9] | [10] | [11] | [12] | [13] | [14] | [15] | [16] | [17] | [18] | [56] | [19] | [20] | [21] | [22] | [23] | [24] | [25] | [26] | [27] | [28] | [29] | [57] | [30] | [31] | [32] | [33] | [34] | [35] | [36] | [37] | [38] | [39] | [40] | [41] | [42] | [43] | [44] | [45] | [46] | [58] | [47] | [48] | [49] | [50] | [51] | [52] | [53] | [54] | [55]
